Test results as given in patent US7256172B1, “Method of treatment and agents useful for same” (The University of Melbourne, priority 1998, dated 2007).
Read-outs that look alike come from different tables or passages of the source. No end group written: not given here.

Assays:
[1] = system: human coronary artery rings
[2] = system: rat gastric fundus; settings: mucosa intact, contracted with acetylcholine
Text: Longitudinal strips of gastric fundus from male Sprague-Dawley rats were suspended under 1 g passive isometric tension in Krebs solution.

[3] = system: isolated human bronchioles
Description: Small (500 μm) bronchioles were carefully dissected from discarded sections of human left lung which had been excised at surgery from two male lung cancer patients (Royal Melbourne Hospital, Melbourne, Australia).
Dissection of these bronchioles required a fine-dissecting microscope and an assistant to continually flood the preparation with cold oxygenated Krebs solution to remove air bubbles and keep the tissue viable. Bronchioles approximately 2 mm in length were then mounted on […] diameter stainless wires in a Krebs solution-filled myograph chamber, as described for the mouse bronchus preparation above.

[4] = system: guinea-pig isolated bronchi
Text: (§1) The right and left main bronchi and their first order branches of specific pathogenfree (SPF) Balb/c mice (15–20 g; either sex), Hartley tricolour guinea-pigs (300–400 g; male) and Sprague-Dawley rats (200–350 g; either sex), all killed by either cervical dislocation or overdosed (i.p.) with sodium pentobarbitone, were cleared of surrounding connective tissue, nerves and blood vessels under a dissecting microscope and placed in cold, carbogenated (95% v/v O2,5% v/v CO2) Krebs solution (Kemp and Cocks, 1997). Human airway preparations (0.5–1 mm in external diameter) were dissected from lungs of cancer patients undergoing thoracotomy at The Royal Melbourne Hospital, Melbourne, Australia. The epithelium was removed from some bronchi either by mechanical abrasion of the luminal surface (guinea-pig) or by brief, gentle intraliminal flushing of the airways with Krebs containing 0.1% v/v Triton-X100 (mouse and rat). In each case, removal of the epithelium was verified histologically in 8 μm formalin-fixed, paraffin sections stained with haemotoxylin and eosin. Ring segments (approximately 2 mm long) of bronchi and bronchioles were mounted in Krebs (37° C.) on stainless steel wires (40 μm) in dual channel (5 ml) Mulvany-Halpern myographs (JP Trading, Aarhus, Denmark) to record changes in isometric force (Kemp and Cocks, 1997). After equilibration at a passive force between 0.2 g and 0.3 g, tissues were contracted to their maximum levels of active force (Fm.),) with acetylcholine (30 μM), thoroughly washed with Krebs and allowed to return to baseline. Various drugs or their vehicles were then added and 30 min later all tissues were contracted to approximately 40% Fmax with titrated concentrations of carbachol (10–500 nM). The L-type voltage-operated Ca^2+ channel inhibitor, nifedipine (0.3 μM) was added to all mouse and rat tissues after obtaining Fmax to control characteristic phasic contractile activity with carbachol.
(§2) Mouse bronchus preparations were carefully mounted horizontally on fine (40 μm) stainless steel wires attached to the jaws of a Mulvany-Halpem myograph. After 60 min at 37° C., all rings were stretched to 0.5 g passive force, which had been determined in preliminary experiments to be optimal, and allowed to recover from that stretch for a further 30 min. Maximum contraction (Fmax) in each tissue was then determined with exogenously applied acetylcholine (ACh; 30 μM) followed by washout. A further 30 min equilibration time was allowed before the tissues were actively contracted to between 20% and 60% of their individual Fm.” values with titrated concentrations of carbachol (10–100 nM).

[5] = system: first generation branches of the mouse main bronchi; settings: mouse bronchioles
Text: as §1
(§3) All cumulative responses (relaxations and contractions) were normalised as percentages of the initial level of active force to carbachol. Results are presented as mean±s.e mean and pEC50 (sensitivity) values were calculated by fitting concentration-response curves to a four parameter logistic function (Kemp and Cocks, 1997) using Graphpad Prism (version 2.0). Statistical comparison of mean pEC50 and maximum response (Rmax) values were compared by two-tailed unpaired Student's t-tests or one way analysis of variance (ANOVA) with Tukey-Kramer's t-tests for multiple comparisons. P<0.05 was accepted as significant. Unless specified, all averaged data are from n>5 experiments.

[6] = system: rat isolated bronchi
Text: as §1, §3

[7] = system: mouse bronchial rings; settings: for relaxation in presence of NO blockers: L—NOARG (100 μM) and HbO (20 μM); for response of epithelium-intact bronchi: contracted to approximately 40% Fmax with carbachol; for relaxation after removal of the epithelium: epithelium removed with 0.1% v/v Triton X-100; for response in presence of cyclooxygenase inhibitors: indomethacin (3 μM) or aspirin (100 μM); for maximum relaxation (Rmax) / sensitivity (pEC50): main bronchi with epithelium; for maximum relaxation (Rmax): % of initial force to carbachol; for sensitivity (pEC50): contracted with carbachol; for response after desensitisation to thrombin: post-thrombin; for response after desensitisation to trypsin: post-trypsin
Text: as §1
If no response occurred the tissues were then exposed to cumulative concentrations of either SLIGRL—NH2 (SEQ ID NO:2) or SFLLRN—NH2 (SEQ ID NO:1) (0.1–30 μM).
as §3, with “Results” for “All cumulative responses (relaxations and contractions) were normalised as percentages of the initial level of active force to carbachol. Results”
as §2, with “nM). […] In some cases, tissues were treated with a range of drugs prior to contraction to approximately […] Fmax. These included the cyclooxygenase inhibitors indomethacin and aspirin, the nitric oxide (NO) synthase inhibitor N′-nitro-L-(L-NOARG), the NO scavenger oxyhaemoglobin (Hb0), and the L-voltage-operated Cat' channel inhibitor nifedipine.” for “nM).”
After an initial passive stretch to 0.5 g (Ti) and recovery, each ring was contracted with acetylcholine (Ach; 30 μM). The contraction was taken as the tissue maximum and referred to as Fmax.

[8] = desensitized to both thrombin and trypsin

Substance | response of rat gastric fundus [2] | response of human bronchioles [3] | response of epithelium-intact rings [4] | maximum relaxation (Rmax) [5] [%] | sensitivity (pEC50) [5] | relaxation in presence of NO blockers [7] | response of epithelium-intact bronchi [7] | relaxation after removal of the epithelium [7] | response in presence of cyclooxygenase inhibitors [7] | maximum relaxation (Rmax) [7] [%] | sensitivity (pEC50) [7] | response after desensitisation to thrombin [7] | response after desensitisation to trypsin [7] | further results
SFLLRN [SFLLRN—NH2] | relaxation | relaxed the bronchioles | only caused concentration-dependent contractions | 58±10 | 5.5±0.02 | unaffected | powerful concentration dependent relaxations | abolished | converted to concentration-dependent contractions | 76±11 | 5.6±0.1 −log M | abolished | abolished | Rmax after desensitisation [1, 8]: 92.0±5.0%; pEC50 after desensitisation [1, 8]: 6.4±0.2; relaxation after removal of the endothelium ([1]; endothelium-denuded): abolished; maximum (Rmax % contraction reversal) ([1]; endothelium-intact, control): 95.2±1.3%; pEC50 ([1]; endothelium-intact, control): 6.9±0.1 −log M; pEC50, untreated control of desensitisation experiment ([1]; untreated, n=8): 7.0±0.1; maximum relaxation relative to isoprenaline plus IBMX ([3]; contracted to approximately 30% Fmax with carbachol): approximately 30%; response of rat bronchial rings [6]: only caused a contraction
SLIGRL-NH2 [SLIGRL—NH2] | relaxation | appeared to cause some contraction, but this was most likely baseline drift | Concentration dependent relaxations to PAR2-AP were observed in six out of thirteen bronchial rings | 58±4 | 5.1±0.05 | unaffected | powerful concentration dependent relaxations | abolished | abolished | 94±3 | 5.6±0.1 −log M | unaffected | abolished | relaxation ([1]; endothelium-intact): no relaxation; response of epithelium-denuded rings ([4]; epithelium-denuded): either caused a small contraction or no response; Rmax ([4]; guinea-pig bronchi): 31±5%; pEC50 ([4]; guinea-pig bronchi): 5.4±0.2; Rmax ([6]; rat bronchi): 56±5%; pEC50 ([6]; rat bronchi): 5.5±0.1; response after desensitisation to trypsin ([7]; listed as PAR2-AP): virtually abolished
